In PubChem BioAssay (NCI):
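All cell lines were grown in 96-well plates and treated with compound for 48 hours. GI50: concentration for 50% inhibition of growth. At the TGI there is no net growth.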

How the values were obtained:
Test in all cases: inhibition of tumour cell growth, NCI panel, 48 h
[1] = test system: UO-31 renal
[2] = test system: MOLT-4 leukemia
[3] = test system: RPMI-8226 leukemia
[4] = test system: SF-539 CNS
[5] = test system: K-562 leukemia
[6] = test system: NCI-H226 lung
[7] = test system: NCI-H460 lung
[8] = test system: SW-620 colon
[9] = test system: OVCAR-3 ovarian
[10] = test system: SK-OV-3 ovarian
[11] = test system: T-47D breast
[12] = test system: COLO 205 colon
[13] = test system: SNB-19 CNS
[14] = test system: LOX IMVI melanoma
[15] = test system: HOP-92 NSCLC
[16] = test system: A549 NSCLC
[17] = test system: HCC-2998 colon
[18] = test system: SK-MEL-2 melanoma
[19] = test system: SK-MEL-28 melanoma
[20] = test system: UACC-62 melanoma
[21] = test system: TK-10 renal
[22] = test system: NCI-H522 lung
[23] = test system: OVCAR-8 ovarian
[24] = test system: PC-3 prostate
[25] = test system: RXF 393 renal
[26] = test system: M14 melanoma
[27] = test system: HCT-15 colon
[28] = test system: SR leukemia
[29] = test system: CAKI-1 renal
[30] = test system: MDA-MB-435
[31] = test system: DU-145 prostate
[32] = test system: MCF7 breast
[33] = test system: IGROV1 ovarian
[34] = test system: OVCAR-5 ovarian
[35] = test system: ACHN renal
[36] = test system: U251 CNS
[37] = test system: EKVX NSCLC
[38] = test system: OVCAR-4 ovarian
[39] = test system: BT-549 breast
[40] = test system: 786-0 renal
[41] = test system: SNB-75 CNS
[42] = test system: HOP-62 NSCLC
[43] = test system: MALME-3M melanoma
[44] = test system: SF-268 CNS
[45] = test system: NCI/ADR-RES ovarian
[46] = test system: UACC-257 melanoma
[47] = test system: SN12C renal
[48] = test system: HL-60(TB) leukemia
[49] = test system: NCI-H23 lung
[50] = test system: SF-295 CNS
[51] = test system: HT29 colon
[52] = test system: KM12 colon
[53] = test system: SK-MEL-5 melanoma
[54] = test system: MDA-MB-231 breast

CCCCCCCCCCN=C(N)c1ccc(N2CCN(c3ccc(C(N)=NCCCCCCCCCC)cc3)CC2)cc1
GI50 [1]: 22.6 µM
TGI [1]: > 50 µM
GI50 [2]: > 50 µM
TGI [2]: > 50 µM
GI50 [3]: 1.96 µM
TGI [3]: > 50 µM
GI50 [4]: 1.72 µM
TGI [4]: 6.76 µM
GI50 [5]: 1.95 µM
TGI [5]: > 50 µM
GI50 [6]: 7.72 µM
TGI [6]: > 50 µM
GI50 [7]: 1.97 µM
TGI [7]: > 50 µM
GI50 [8]: 2.65 µM
TGI [8]: > 50 µM
GI50 [9]: 2.23 µM
TGI [9]: 8.57 µM
GI50 [10]: 4.08 µM
TGI [10]: > 50 µM
GI50 [11]: 5.91 µM
TGI [11]: 18.8 µM
GI50 [12]: 3.93 µM
TGI [12]: 15.7 µM
GI50 [13]: 3.02 µM
TGI [13]: 19.1 µM
GI50 [14]: 3.5 µM
TGI [14]: > 50 µM
GI50 [15]: 5.88 µM
TGI [15]: 28.9 µM
GI50 [16]: 3.32 µM
TGI [16]: > 50 µM
GI50 [17]: 3.51 µM
TGI [17]: > 50 µM
GI50 [18]: 7.74 µM
TGI [18]: > 50 µM
GI50 [19]: 4.76 µM
TGI [19]: 36 µM
GI50 [20]: 6.67 µM
TGI [20]: 38.1 µM
GI50 [21]: 8.29 µM
TGI [21]: > 50 µM
GI50 [22]: 3.75 µM
TGI [22]: > 50 µM
GI50 [23]: 2.62 µM
TGI [23]: > 50 µM
GI50 [24]: 2.94 µM
TGI [24]: 12.1 µM
GI50 [25]: 6.82 µM
TGI [25]: 36.1 µM
GI50 [26]: 18 µM
TGI [26]: > 50 µM
GI50 [27]: 14.1 µM
TGI [27]: > 50 µM
GI50 [28]: > 50 µM
TGI [28]: > 50 µM
GI50 [29]: 17.9 µM
TGI [29]: > 50 µM
GI50 [30]: 2.83 µM
TGI [30]: 12.6 µM
GI50 [31]: 3.3 µM
TGI [31]: 26.1 µM
GI50 [32]: 1.55 µM
TGI [32]: > 50 µM
GI50 [33]: 2.83 µM
TGI [33]: > 50 µM
GI50 [34]: 5.25 µM
TGI [34]: > 50 µM
GI50 [35]: 15.7 µM
TGI [35]: > 50 µM
GI50 [36]: 2.44 µM
TGI [36]: > 50 µM
GI50 [37]: 4.44 µM
TGI [37]: 21.1 µM
GI50 [38]: 6.5 µM
TGI [38]: > 50 µM
GI50 [39]: 1.69 µM
TGI [39]: 5.04 µM
GI50 [40]: 16 µM
TGI [40]: > 50 µM
GI50 [41]: 2.34 µM
TGI [41]: > 50 µM
GI50 [42]: 11.3 µM
TGI [42]: 29 µM
GI50 [43]: 6.25 µM
TGI [43]: 17 µM
GI50 [44]: 2.27 µM
TGI [44]: 11.1 µM
GI50 [45]: > 50 µM
TGI [45]: > 50 µM
GI50 [46]: 9.81 µM
TGI [46]: 26.5 µM
GI50 [47]: 2.19 µM
TGI [47]: 15.2 µM
GI50 [48]: 2.17 µM
TGI [48]: > 50 µM
GI50 [49]: 3.23 µM
TGI [49]: > 50 µM
GI50 [50]: 1.81 µM
TGI [50]: 6.12 µM
GI50 [51]: 3.37 µM
TGI [51]: > 50 µM
GI50 [52]: 2.9 µM
TGI [52]: 17.8 µM
GI50 [53]: 2.19 µM
TGI [53]: > 50 µM
GI50 [54]: 2.95 µM
TGI [54]: 17.9 µM
